Measurements reported in the NIST ThermoML archive (doi:10.1021/je050374d).
Numbers after ± are expanded uncertainties.

Experiment: xn = mol fraction of the nth substance listed
Settings: Liquid

C=C [ethene] + CO
Settings | mass density [kg/m3]
278.15 K, x1 = 0.147 | 742.3 ± 8.4
278.15 K, x1 = 0.189 | 722.2 ± 8.9
278.15 K, x1 = 0.295 | 675.3 ± 10
278.15 K, x1 = 0.373 | 644.9 ± 11
278.15 K, x1 = 0.989 | 322 ± 10
283.65 K, x1 = 0.14 | 741.3 ± 8.4
283.65 K, x1 = 0.221 | 706 ± 9.3
283.65 K, x1 = 0.325 | 657.5 ± 10
283.65 K, x1 = 0.432 | 610.9 ± 12
283.65 K, x1 = 0.475 | 589.1 ± 12
283.65 K, x1 = 0.984 | 258.5 ± 8.5
